Assays:
[1] = test system: goosegrass; experiment: Test C postemergence; format: in vivo, Eleusine indica; conditions: for Goosegrass plant response rating: scale 0 to 100
Source text: (§1) Seeds of plant species selected from blackgrass (Alopecurus myosuroides), ryegrass, Italian (Italian ryegrass, Lolium multiflorum), wheat (winter wheat, Triticum aestivum), galium (catchweed bedstraw, Galium aparine), corn (Zea mays), crabgrass, large (large crabgrass, Digitaria sanguinalis), foxtail, giant (giant foxtail, Setaria faberii), johnsongrass (Sorghum halepense), lambsquarters (Chenopodium album), morningglory (Ipomoea coccinea), nutsedge, yellow (yellow nutsedge, Cyperus esculentus), pigweed (redroot pigweed, Amaranthus retroflexus), ragweed (common ragweed, Ambrosia elation), soybean (Glycine max), barnyardgrass (Echinochloa crus-galli), oilseed rape (Brassica napus), waterhemp (common waterhemp, Amaranthus rudis), oat, wild (wild oat, Avena fatua), kochia (Kochia scoparia), Surinam grass (Brachiaria decumbens), foxtail, green (green foxtail, Setaria viridis), goosegrass (Eleusine indica), bromegrass, downy (downy bromegrass, Bromus tectorum), nightshade (eastern black nightshade, Solanum ptycanthum), cocklebur (common cocklebur, Xanthium strumarium), cupgrass, woolly (woolly cupgrass, Eriochloa villosa), bermudagrass (Cynodon dactylon), sunflower, (common oilseed sunflower, Helianthus annuus), Russian thistle (Salsola kali), and velvetleaf (Abutilon theophrasti) were planted into a blend of loam soil and sand and treated preemergence with test chemicals formulated in a non-phytotoxic solvent mixture which included a surfactant.
(§2) At the same time, plants selected from these crop and weed species and also chickweed (common chickweed, Stellaria media), canarygrass (littleseed canarygrass, Phalaris minor), and deadnettle (henbit deadnettle, Lamium amplexicaule), were planted in pots containing Redi-Earth® planting medium (Scotts Company, 14111 Scottslawn Road, Marysville, Ohio 43041) comprising spaghnum peat moss, vermiculite, wetting agent and starter nutrients and treated with postemergence applications of test chemicals formulated in the same manner. Plants ranged in height from 2 to 18 cm (1- to 4-leaf stage) for postemergence treatments. Treated plants and controls were maintained in a greenhouse for 13 to 15 days, after which time all species were compared to controls and visually evaluated. Plant response ratings, summarized in Table C, are based on a scale of 0 to 100 where 0 is no effect and 100 is complete control. A dash (-) response means no test result.

[2] = test system: cupgrass, woolly; experiment: Test C preemergence; format: in vivo, Eriochloa villosa; conditions: for Plant response rating (scale of 0 to 100), Cupgrass, Woolly: Preemergence, 250 g ai/ha
Source text: as §1, §2

[3] = test system: common ragweed; experiment: Test A preemergence; format: in vivo, Ambrosia elation
Procedure, shortened: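 Pre- and postemergence greenhouse test; loam+sand; cpd in non-phytotox. solvent/surfactant; post at 1–2 leaf, 2–10 cm; visual score ~10 d, 0 = none, 100 = complete control.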

[4] = postemergence, 250 g ai/ha, scale 0 to 100 (0 no effect, 100 complete control)
[5] = postemergence, 62 g ai/ha, scale 0 to 100, 0 no effect, 100 complete control
[6] = postemergence, 125 g ai/ha, scale 0 to 100, 0 no effect, 100 complete control
[7] = preemergence, 31 g ai/ha, scale 0 to 100 (0 no effect, 100 complete control), 13 to 15 days
[8] = preemergence, 125 g ai/ha, scale 0 to 100, 0 is no effect, 100 is complete control
[9] = 125 g ai/ha, visual injury, 0 to 100 scale, approx. 10 days
[10] = 500 g ai/ha, visual injury after approx. 10 days, 0 to 100 scale (0 no effect, 100 complete control)

SMILES | Goosegrass plant response rating ([1]; Postemergence, 31 g ai/ha) | Plant response rating, Goosegrass [1, 4] | Plant response rating, Goosegrass [1, 5] | Plant response rating, Goosegrass [1, 6] | Plant response rating (scale of 0 to 100), Cupgrass, Woolly [2] | Cupgrass, Woolly plant response rating [2, 7] | Cupgrass, Woolly plant response rating [2, 8] | Common Ragweed plant response rating [3, 9] | Common Ragweed plant response rating [3, 10] | also measured
CCc1cc(C(=O)NOC(C)C)nn1Cc1cccc(OC(F)(F)F)c1 [Compound 70] | 5 | 15 | 5 | 10 | 90 | 40 | 85 |  |  | Plant response rating, Cupgrass, Woolly ([2]; preemergence, 62 g ai/ha, 13 to 15 days, scale 0 to 100, 0 = no effect, 100 = complete control): 65
Cc1cc(C(=O)NCC(F)(F)F)nn1Cc1ccnc(C(F)(F)F)c1 [Compound 74] | 5 | 10 |  | 5 | 98 | 65 | 98 |  |  | Goosegrass plant response rating ([1]; postemergence, 62 g ai/ha): 5
CCCNC(=O)c1cc(OCC)n(Cc2ccnc(OC(F)F)c2)n1 [Compound 136] |  |  |  |  |  |  |  | 70 | 80 | 
CCCNC(=O)c1cc(CC)n(Cc2cccc(OC(F)(F)F)c2)n1 [Compound 27] | 0 | 10 | 0 | 0 |  |  |  |  |  | 
CCCc1cc(C(=O)NC2CC2)nn1Cc1ccnc(OC(F)F)c1 [Compound 205] |  |  |  |  |  |  |  |  | 100 | Common Ragweed plant response rating (0 to 100 scale) ([3]; 125 g ai/ha, visual injury approx. 10 days after treatment): 70
CCCc1cc(C(=O)NCC(F)(F)F)nn1Cc1ccnc(OC(F)F)c1 [Compound 127] |  |  |  |  |  |  |  | 30 | 90 | 

Reference: patent US20150105252A1, “SUBSTITUTED PYRAZOLES AS HERBICIDES” (E I DU PONT DE NEMOURS AND COMPANY, priority 2013, published 2015)
